Measured values from patent US11731985B2, “Compositions and methods for treating cancer” (Hb Therapeutics Inc., priority 2018, dated 2023).
Read-outs that look alike come from different tables or passages of the source.

Tested on: LN229 cells
Assay: Cell viability assay, LN229 cells
Type: cell-based, human
Details: read-out: Inhibition of Cancer Cell Growth (IC50)
Protocol: Each of the compounds was used to treat the cancer LN229 cells and examined first by western and dot blot assays for the degradation of SUMO1 protein and then by cell viability assay for the IC50 values of anticancer activity.
LN229 cell were treated with a series of dilutions of CPD1 and examined by cell viability assay for cell growth inhibition (FIG. 2B). […] Therefore, CPD1 acts as the degrader of SUMO1 protein and inhibitor of SUMO1 conjugation in cancer cells.

[1] = Homo sapiens, LN-229, LN229 cells

For `COc1ccc(-c2cccc(NC(=O)Nc3nc4ccc(C#N)cc4s3)c2)cc1` [Compound 33], the IC50 [1] was at most 5 µM.

For `N#Cc1cccc(NC(=O)Nc2nc3ccc(Br)cc3s2)c1` [Compound 74], the IC50 [1] was at most 5 µM.

`N#Cc1cccc(NC(=O)Nc2nc3c(s2)CC(N)CC3)c1` (stereo not shown) [Compound 67] gave an IC50 [1] of at most 20 µM.

For `O=C(Nc1ccccc1)Nc1nc2ccccc2s1` [Compound 11], the IC50 [1] was over 20 µM.

Molecule `N#Cc1ccc(NC(=O)Nc2nc3ccc(Cl)cc3s2)c(Cl)c1` [Compound 104] has an IC50 [1] of at most 5 µM.

With `N#Cc1c(F)ccc(NC(=O)Nc2nc3ccc(Cl)cc3s2)c1F` [Compound 122] the IC50 [1] was at most 5 µM.

For `N#Cc1cccc(NC(=O)Nc2nc3ccc(C(=O)N4CCOCC4)cc3s2)c1` [Compound 60], the IC50 [1] was over 20 µM.

`N#Cc1cccc(NC(=O)NC2Cc3ccccc3C2)c1` [Compound 46] showed an IC50 [1] of over 20 µM.

`N#Cc1ccc2nc(NC(=O)Nc3ccc(Cl)c(Cl)c3)sc2c1` [Compound 41] gave an IC50 [1] of at most 5 µM.

In the case of `N#Cc1ccc2nc(NC(=O)Nc3cccc(OCCOCCN)c3)sc2c1` [Compound 121], the IC50 (LN229 cells) is reported as over 20 µM.

`COC(=O)c1ccc2nc(NC(=O)Nc3cccc([N+](=O)[O-])c3)sc2c1` [Compound 28] gave an IC50 [1] of at most 20 µM.

For `CCc1ccc(NC(=O)Nc2nc3ccc(C#N)cc3s2)cc1` [Compound 39], the IC50 (LN229 cells) was at most 5 µM.

`CC(=O)Nc1ccc2nc(NC(=O)Nc3cccc(C#N)c3)sc2c1` [Compound 75] gave an IC50 [1] of over 20 µM.

Molecule `O=C(Nc1ccc(Cl)c(Cl)c1)Nc1nc2ccc([N+](=O)[O-])cc2s1` [Compound 2] has an IC50 [1] of at most 5 µM.

Molecule `O=C(Nc1cccc(Cl)c1)Nc1nc2ccc(Br)cc2s1` [Compound 21] has an IC50 [1] of over 20 µM.

In the case of `O=C(Nc1cccc([N+](=O)[O-])c1)Nc1nc2c(Cl)cccc2s1` [Compound 12], the IC50 [1] is reported as at most 20 µM.

`N#CC1CCc2nc(NC(=O)Nc3cccc(Cl)c3)sc2C1` (stereo not shown) [Compound 97] gave an IC50 [1] of at most 20 µM.

`O=C(Nc1cccc(Cl)c1)Nc1nc2ccc([N+](=O)[O-])cc2s1` [Compound 19] gave an IC50 (LN229 cells) of over 20 µM.

Molecule `CC(C)(C)OC(=O)N[C@H]1CCc2nc(NC(=O)Nc3cccc(C#N)c3)sc2C1` [Compound 63] has an IC50 [1] of at most 20 µM.

For `COc1cccc(NC(=O)Nc2nc3ccc(C#N)cc3s2)n1` [Compound 68], the IC50 [1] was over 20 µM.

Work on `N#Cc1cccc(NC(=O)Nc2nc3c(Cl)cc(Cl)cc3s2)c1` [Compound 101] yielded an IC50 [1] of at most 5 µM.

`N#Cc1ccc(NC(=O)Nc2nc3ccc(Cl)cc3s2)cc1F` [Compound 107] was tested, and the IC50 [1] was at most 5 µM.

For `CC(C)(C)OC(=O)N1CCc2nc(NC(=O)Nc3cccc(C#N)c3)sc2C1` [Compound 49], the IC50 [1] was at most 20 µM.

Molecule `CC(C)(C(=O)Nc1nc2ccc(C#N)cc2s1)c1ccccc1` [Compound 56] has an IC50 [1] of over 20 µM.

In the case of `O=C(Nc1ccc(Cl)cc1)Nc1nc2ccc([N+](=O)[O-])cc2s1` [Compound 5], the IC50 (LN229 cells) is reported as at most 5 µM.

`Cc1ccc(C(C)C(=O)Nc2nc3ccc(C#N)cc3s2)cc1` (stereo not shown) [Compound 55] gave an IC50 [1] of at most 20 µM.

`N#Cc1ccc(NC(=O)Nc2nc3ccc(C(F)(F)F)cc3s2)cc1C#N` [Compound 13] was tested, and the IC50 [1] was over 20 µM.

In the case of `N#Cc1ccc2nc(NC(=O)Nc3cccc(-c4ccc(F)cc4)c3)sc2c1` [Compound 32, 1-(6-cyano-1,3-benzothiazol-2-yl)-3-[3-(4-fluorophenyl)phenyl]urea], the IC50 [1] is reported as at most 5 µM.

`N#Cc1ccc2nc(NC(=O)Nc3ccc(Br)cc3)sc2c1` [Compound 36] was tested, and the IC50 [1] was at most 5 µM.

For `CCOC(=O)C1CCc2nc(NC(=O)Nc3cccc(Cl)c3)sc2C1` (stereo not shown) [Compound 80], the IC50 [1] was over 20 µM.

Work on `Cc1ccc(NC(=O)Nc2nc3ccc(Cl)cc3s2)cc1C#N` [Compound 88] yielded an IC50 [1] of at most 20 µM.

`Cn1ncc2ccc(NC(=O)Nc3nc4ccc(C#N)cc4s3)cc21` [Compound 111] was tested, and the IC50 [1] was over 20 µM.

Molecule `N#Cc1cccc(NC(=O)Nc2nc3ccccc3s2)c1` [Compound 48] has an IC50 [1] of at most 20 µM.

For `O=C(Nc1ccc([N+](=O)[O-])cc1)Nc1nc2ccc(Cl)cc2s1` [Compound 6], the IC50 [1] was at most 5 µM.

`O=C(Nc1cccc([N+](=O)[O-])c1)Nc1nc2ccc(Cl)cc2s1` [Compound 4] was tested, and the IC50 [1] was at most 5 µM.

Work on `N#Cc1ccc2nc(NC(=O)C3(c4ccccc4)CC3)sc2c1` [Compound 57] yielded an IC50 [1] of over 20 µM.

For `CN(C(=O)Nc1nc2ccc(C#N)cc2s1)c1ccccc1` [Compound 76], the IC50 [1] was over 20 µM.

`N#Cc1cc(Cl)cc(NC(=O)Nc2nc3ccc(Cl)cc3s2)c1` [Compound 93] gave an IC50 [1] of at most 5 µM.

For `CC(C)(C)OC(=O)N[C@@H]1CCc2nc(NC(=O)Nc3cccc(C#N)c3)sc2C1` [Compound 62], the IC50 [1] was at most 5 µM.

`N#Cc1ccc(NC(=O)Nc2nc3ccc(Cl)cc3s2)c(F)c1` [Compound 123] gave an IC50 [1] of at most 20 µM.

Work on `N#Cc1cc(F)cc(NC(=O)Nc2nc3ccc(Cl)cc3s2)c1` [Compound 105] yielded an IC50 [1] of at most 5 µM.

`N#Cc1ccc2nc(NC(=O)Nc3ccccc3)sc2c1` [Compound 45] gave an IC50 [1] of at most 5 µM.

With `N#Cc1cccc(NC(=O)Nc2nc3ccc(Cl)cc3s2)c1` [Compound 42] the IC50 [1] was at most 5 µM.

Work on `COc1cccc(NC(=O)Nc2nc3ccc(C#N)cc3s2)c1` [Compound 38] yielded an IC50 [1] of at most 5 µM.

`N#Cc1cccc(NC(=O)Nc2nc3c(F)cc(F)cc3s2)c1` [Compound 102] was tested, and the IC50 [1] was at most 5 µM.

Molecule `O=C(Nc1nc2ccc([N+](=O)[O-])cc2s1)Nc1c(Cl)cccc1Cl` [Compound 14] has an IC50 [1] of at most 20 µM.

For `N#Cc1cccc(NC(=O)Nc2nc3ccc(OC(F)(F)F)cc3s2)c1` [Compound 103], the IC50 [1] was at most 5 µM.

Work on `N#Cc1cc(F)cc(NC(=O)Nc2nc3ccc(C(F)(F)F)cc3s2)c1` [Compound 113, 1-(3-cyano-5-fluorophenyl)-3-[6-(trifluoromethyl)-1,3-benzothiazol-2-yl]urea] yielded an IC50 [1] of at most 5 µM.

`N#Cc1cccc(NC(=O)N2CCc3ccccc3C2)c1` [Compound 47] gave an IC50 [1] of over 20 µM.

For `N#Cc1ccc(NC(=O)Nc2nc3ccc(Cl)cc3s2)cc1` [Compound 94], the IC50 [1] was at most 5 µM.

`N#Cc1cccc(NC(=O)Nc2nc3c(s2)CC(C(N)=O)CC3)c1` (stereo not shown) [Compound 89] showed an IC50 [1] of over 20 µM.

Work on `CC(=O)N1CCc2nc(NC(=O)Nc3cccc(C#N)c3)sc2C1` [Compound 65] yielded an IC50 [1] of over 20 µM.

`O=C1N(c2cccc(Cl)c2)CCCN1c1nc2ccc([N+](=O)[O-])cc2s1` [Compound 29] showed an IC50 [1] of over 20 µM.

In the case of `N#Cc1ccc(NC(=O)Nc2nc3ccc(Cl)cc3s2)cc1Cl` [Compound 118], the IC50 [1] is reported as at most 5 µM.

Work on `Cc1ccc2nc(NC(=O)Nc3cccc(C#N)c3)sc2c1` [Compound 44] yielded an IC50 [1] of over 20 µM.

`N#Cc1cccc(NC(=O)Nc2nc3c(s2)CCCC3)c1` [Compound 59] was tested, and the IC50 [1] was at most 20 µM.

In the case of `COc1cc(NC(=O)Nc2nc3ccc(C#N)cc3s2)ccn1` [Compound 71], the IC50 [1] is reported as at most 5 µM.

Work on `CN(C)C(=O)c1ccc2nc(NC(=O)Nc3cccc(C#N)c3)sc2c1` [Compound 64] yielded an IC50 [1] of over 20 µM.

Work on `O=C(Nc1cccc(Cl)c1)Nc1nc2ccc([N+](=O)[O-])cc2s1` [Compound 3] yielded an IC50 (LN229 cells) of at most 5 µM.

`N#Cc1ccc(NC(=O)Nc2nc3ccc(Cl)cc3s2)cc1C(F)(F)F` [Compound 119] was tested, and the IC50 [1] was at most 5 µM.

Molecule `N#Cc1ccc2nc(NC(=O)Nc3ccc4ccccc4c3)sc2c1` [Compound 110] has an IC50 [1] of at most 20 µM.

In the case of `O=C(Nc1ccc(F)c([N+](=O)[O-])c1)Nc1nc2c(Cl)cccc2s1` [Compound 17], the IC50 [1] is reported as over 20 µM.

`N#Cc1cccc(NC(=O)Nc2nc3ccc(F)cc3s2)c1` [Compound 70] gave an IC50 [1] of at most 5 µM.

`N#Cc1cc(NC(=O)Nc2nc3ccc(Cl)cc3s2)ccc1Cl` [Compound 85] was tested, and the IC50 [1] was at most 5 µM.

In the case of `CC(C)(C)OC(=O)NCCOCCOc1cccc(NC(=O)Nc2nc3ccc(C#N)cc3s2)c1` [Compound 120], the IC50 (LN229 cells) is reported as at most 5 µM.

For `O=C(Nc1nc2ccccc2s1)Nc1ccccc1Cl` [Compound 8], the IC50 [1] was over 20 µM.

For `N#Cc1ccc2nc(NC(=O)Nc3cccc(N4CCOCC4)c3)sc2c1` [Compound 82], the IC50 [1] was at most 20 µM.

Work on `NC(=O)C1CCc2nc(NC(=O)Nc3cccc(Cl)c3)sc2C1` (stereo not shown) [Compound 90, 2-[(3-chlorophenyl)carbamoylamino]-4,5,6,7-tetrahydro-1,3-benzothiazole-6-carboxamide] yielded an IC50 [1] of over 20 µM.

With `N#Cc1cccc(NC(=O)Nc2nc3ccc(N)cc3s2)c1` [Compound 77] the IC50 [1] was over 20 µM.

Work on `O=C(Nc1ccc(Cl)cc1)Nc1nc2ccc([N+](=O)[O-])cc2s1` [Compound 18] yielded an IC50 (LN229 cells) of over 20 µM.

Molecule `N#Cc1ccc2nc(NC(=O)Nc3cccc([N+](=O)[O-])c3)sc2c1` [Compound 23] has an IC50 [1] of at most 5 µM.

`CCOC(=O)C1CCc2nc(NC(=O)Nc3cccc(C#N)c3)sc2C1` (stereo not shown) [Compound 79] gave an IC50 [1] of over 20 µM.

For `CN1CCN(c2cccc(NC(=O)Nc3nc4ccc(C#N)cc4s3)c2)CC1` [Compound 83], the IC50 [1] was at most 5 µM.

For `N#Cc1cccc(NC(=O)Nc2nc3c(s2)COCC3)c1` [Compound 58], the IC50 [1] was at most 20 µM.

Work on `O=C(Nc1nc2ccccc2s1)Nc1ccc([N+](=O)[O-])cc1Cl` [Compound 9] yielded an IC50 [1] of over 20 µM.

`O=C(Nc1nc2cccc([N+](=O)[O-])c2s1)Nc1ccc(Cl)cc1F` [Compound 16] gave an IC50 [1] of over 20 µM.

`CS(=O)(=O)c1ccc2nc(NC(=O)Nc3cccc(C#N)c3)sc2c1` [Compound 114] showed an IC50 [1] of at most 20 µM.

`N#Cc1cccc(NC(=O)Nc2nc3ccc(C(F)(F)F)cc3s2)c1` [Compound 100] was tested, and the IC50 [1] was at most 5 µM.

`CS(=O)(=O)c1ccc2nc(NC(=O)Nc3cccc(Cl)c3)sc2c1` [Compound 20] showed an IC50 [1] of over 20 µM.

`N#Cc1cc(Cl)cc(NC(=O)Nc2nc3ccc(C(F)(F)F)cc3s2)c1` [Compound 115] was tested, and the IC50 [1] was at most 5 µM.

`N#Cc1ccc(NC(=O)Nc2nc3ccc(C(F)(F)F)cc3s2)cc1` [Compound 117] gave an IC50 [1] of at most 5 µM.

Molecule `N#Cc1cccc(NC(=O)Nc2nc3c(s2)CNCC3)c1` [Compound 50] has an IC50 [1] of at most 20 µM.

With `N#Cc1ccc2nc(NC(=O)Nc3cccc4ccccc34)sc2c1` [Compound 109] the IC50 [1] was over 20 µM.

With `CN1CCc2nc(NC(=O)Nc3cccc(C#N)c3)sc2C1` [Compound 52] the IC50 [1] was over 20 µM.

Molecule `Cc1ccc(-c2cccc(NC(=O)Nc3nc4ccc(C#N)cc4s3)c2)cc1` [Compound 34] has an IC50 [1] of at most 5 µM.

`N#Cc1cc(NC(=O)Nc2nc3ccc(Cl)cc3s2)ccc1Br` [Compound 87] gave an IC50 [1] of at most 5 µM.

In the case of `O=C(Nc1cccc(C(=O)O)c1)Nc1nc2ccc([N+](=O)[O-])cc2s1` [Compound 27], the IC50 [1] is reported as over 20 µM.

Work on `N#Cc1ccc2nc(NC(=O)NCc3ccccc3)sc2c1` [Compound 73] yielded an IC50 [1] of at most 20 µM.
